Results taken from patent US8952024B2, “Herbicidal pyrimidone derivatives” (E I du Pont de Nemours and Company, priority 2009, dated 2015).

Key:
Assay type in all cases: in vivo
[1] = test system: barnyardgrass (Echinochloa crus-galli); assay: Test A pre-/postemergence plant response; conditions: for Barnyardgrass plant response rating: visual injury, 0 to 100 scale (0 no effect, 100 complete control), approx. ten days
In short: (§1)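 Seeds planted in loam soil/sand blend; test chemicals in non-phytotoxic solvent mixture with surfactant applied as directed soil spray preemergence and, concurrently, postemergence to plants 2–10 cm tall at one- to two-leaf stage. Greenhouse ~10 days; visual injury vs untreated controls, 0 (no effect) to 100 (complete control).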

[2] = test system: corn (Zea mays); assay: Test A pre-/postemergence plant response; conditions: for Corn plant response rating: visual injury, 0 to 100 scale (0 no effect, 100 complete control), approx. ten days
In short: as §1

[3] = test system: giant foxtail (Setaria faberii); assay: Test A pre-/postemergence plant response
In short: as §1

[4] = test system: large crabgrass (Digitaria sanguinalis); assay: Test A pre-/postemergence plant response; conditions: for Crabgrass, Large plant response rating: visual injury, 0 to 100 scale (0 no effect, 100 complete control), approx. ten days
In short: as §1

[5] = test system: morningglory (Ipomoea spp.); assay: Test A pre-/postemergence plant response
In short: as §1

[6] = test system: pigweed (Amaranthus retroflexus); assay: Test A pre-/postemergence plant response
In short: as §1

[7] = test system: velvetleaf (Abutilon theophrasti); assay: Test A pre-/postemergence plant response
In short: as §1

[8] = test system: wheat (Triticum aestivum); assay: Test A pre-/postemergence plant response
In short: as §1

[9] = test system: winter barley (Hordeum vulgare); assay: Test B postemergence plant response; conditions: Postemergence
In short: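 Plants grown in peat/vermiculite medium were sprayed postemergence at 2–18 cm height (1- to 4-leaf stage). After 13–15 days in the greenhouse, response was rated visually against untreated controls on a 0–100 scale (0 no effect, 100 complete control).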

[10] = test system: barnyardgrass (Echinochloa crus-galli); assay: Test B flooded paddy test; conditions: for Plant response rating, Flood, Barnyardgrass: 250 g ai/ha, flooded paddy test, visual rating on 0 to 100 scale (0 no effect, 100 complete control) after 13 to 15 days; for Plant response rating, Barnyardgrass: Flood (flooded paddy test), 13 to 15 days; for Barnyardgrass plant response rating: Flood, 31 g ai/ha, scale 0 to 100 (0 no effect, 100 complete control)
In short: (§2)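 Greenhouse-held for 13 to 15 days, treated pots were compared visually with controls and scored 0–100 (0, no effect). Treatment had been made into paddy water kept at 3 cm above the soil, with plants at the 2-leaf stage.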

[11] = test system: ducksalad (Heteranthera limosa); assay: Test B flooded paddy test; conditions: for Plant response rating, Flood, Ducksalad: 250 g ai/ha, flooded paddy test, visual rating on 0 to 100 scale (0 no effect, 100 complete control) after 13 to 15 days; for Plant response rating, Ducksalad: Flood (flooded paddy test), 13 to 15 days; for Ducksalad plant response rating: Flood, 31 g ai/ha, scale 0 to 100 (0 no effect, 100 complete control)
In short: as §2

[12] = test system: rice (Oryza sativa); assay: Test B flooded paddy test; conditions: for Plant response rating, Flood, Rice: 250 g ai/ha, flooded paddy test, visual rating on 0 to 100 scale (0 no effect, 100 complete control) after 13 to 15 days; for Plant response rating, Rice: Flood (flooded paddy test), 13 to 15 days; for Rice plant response rating: Flood, 31 g ai/ha, scale 0 to 100 (0 no effect, 100 complete control)
In short: as §2

[13] = test system: umbrella sedge (Cyperus difformis); assay: Test B flooded paddy test; conditions: for Plant response rating, Flood, Sedge, Umbrella: 250 g ai/ha, flooded paddy test, visual rating on 0 to 100 scale (0 no effect, 100 complete control) after 13 to 15 days; for Plant response rating, Sedge, Umbrella: Flood (flooded paddy test), 13 to 15 days; for Sedge, Umbrella plant response rating: Flood, 31 g ai/ha, scale 0 to 100 (0 no effect, 100 complete control)
In short: as §2

[14] = Postemergence, 125 g ai/ha, 0 to 100 scale where 0 is no effect and 100 is complete control
[15] = Preemergence, 125 g ai/ha, 0 to 100 scale where 0 is no effect and 100 is complete control, approximately ten days
[16] = Preemergence, 500 g ai/ha, 0 to 100 scale, 0 = no effect, 100 = complete control
[17] = Postemergence, 125 g ai/ha, visual injury, 0 to 100 scale (0 no effect, 100 complete control), approx. ten days
[18] = Postemergence, 500 g ai/ha, visual injury, 0 to 100 scale (0 no effect, 100 complete control), approx. ten days
[19] = 31 g ai/ha, 0 to 100 scale (0 no effect, 100 complete control)
[20] = 62 g ai/ha, scale 0 to 100 (0 no effect, 100 complete control)
[21] = 125 g ai/ha, scale 0 (no effect) to 100 (complete control), 13 to 15 days
[22] = 250 g ai/ha, scale 0 to 100 (0 no effect, 100 complete control), 13 to 15 days
[23] = 62 g ai/ha, scale of 0 to 100 where 0 is no effect and 100 is complete control
[24] = 125 g ai/ha, scale 0 to 100, 0 is no effect, 100 is complete control

With CCCCn1c(-c2cc(F)cc(F)c2)ncc(C(=O)C2=C(O)C3CCC(C3)C2=O)c1=O (centres unmarked) [Compound 245] the “Plant response rating, Barnyardgrass” value [1, 14] was 90, the “Barnyardgrass plant response rating” value ([1]; Postemergence, 500 g ai/ha) was 100 and the “Plant response rating, Barnyardgrass” value [1, 15] was 40. For the same compound, the “Plant response rating, Barnyardgrass” value [1, 16] was 100, the “Plant response rating, Corn” value [2, 14] was 40 and the “Corn plant response rating” value ([2]; Postemergence, 500 g ai/ha) was 90. For the same compound, the “Plant response rating, Corn” value [2, 15] was 0, the “Plant response rating, Corn” value [2, 16] was 20 and the “Plant response rating, Foxtail, Giant” value [3, 17] was 100. For the same compound, the “Foxtail, Giant plant response rating” value [3, 18] was 100, the “Plant response rating, Foxtail, Giant” value [3, 15] was 80 and the “Plant response rating, Foxtail, Giant” value [3, 16] was 90. For the same compound, the “Plant response rating, Crabgrass, Large” value [4, 14] was 90, the “Crabgrass, Large plant response rating” value ([4]; Postemergence, 500 g ai/ha) was 90 and the “Plant response rating, Crabgrass, Large” value [4, 15] was 80. For the same compound, the “Plant response rating, Crabgrass, Large” value [4, 16] was 100, the “Plant response rating, Morningglory” value [5, 17] was 100 and the “Morningglory plant response rating” value [5, 18] was 100. The “Plant response rating, Morningglory” value [5, 15] was 20, the “Plant response rating, Morningglory” value [5, 16] was 60 and the “Plant response rating, Pigweed” value [6, 17] was 100. For the same compound, the “Pigweed plant response rating” value [6, 18] was 100, the “Plant response rating, Pigweed” value [6, 15] was 80 and the “Plant response rating, Pigweed” value [6, 16] was 90. The “Plant response rating, Velvetleaf” value [7, 17] was 100, the “Velvetleaf plant response rating” value [7, 18] was 100 and the “Plant response rating, Velvetleaf” value [7, 15] was 70. The “Plant response rating, Velvetleaf” value [7, 16] was 100, the “Plant response rating, Wheat” value [8, 17] was 40 and the “Wheat plant response rating” value [8, 18] was 80. For the same compound, the “Plant response rating, Wheat” value [8, 15] was 0, the “Plant response rating, Wheat” value [8, 16] was 20 and the “Plant response rating, Barley” value [9, 19] was 45. The “Plant response rating, Barley” value [9, 20] was 85, the “Plant response rating, Barley” value [9, 21] was 85 and the “Plant response rating, Barley” value [9, 22] was 95. The “Plant response rating, Flood, Barnyardgrass” value [10] was 65, the “Plant response rating, Barnyardgrass” value [10, 23] was 0 and the “Plant response rating, Barnyardgrass” value [10, 24] was 40. The “Barnyardgrass plant response rating” value [10] was 0, the “Plant response rating, Flood, Ducksalad” value [11] was 100 and the “Plant response rating, Ducksalad” value [11, 23] was 100. For the same compound, the “Plant response rating, Ducksalad” value [11, 24] was 100, the “Ducksalad plant response rating” value [11] was 100 and the “Plant response rating, Flood, Rice” value [12] was 90. For the same compound, the “Plant response rating, Rice” value [12, 23] was 50, the “Plant response rating, Rice” value [12, 24] was 50 and the “Rice plant response rating” value [12] was 50. For the same compound, the “Plant response rating, Flood, Sedge, Umbrella” value [13] was 100, the “Plant response rating, Sedge, Umbrella” value [13, 23] was 100 and the “Plant response rating, Sedge, Umbrella” value [13, 24] was 100. For the same compound, the “Sedge, Umbrella plant response rating” value [13] was 60.
For CCc1ccccc1-n1c(-c2ccccc2)ncc(C(=O)C2=C(O)CCCC2=O)c1=O [Compound 255], the “Plant response rating, Barnyardgrass” value [1, 14] was 90, the “Barnyardgrass plant response rating” value ([1]; Postemergence, 500 g ai/ha) was 100 and the “Plant response rating, Barnyardgrass” value [1, 15] was 10. For the same compound, the “Plant response rating, Barnyardgrass” value [1, 16] was 100, the “Plant response rating, Corn” value [2, 14] was 30 and the “Corn plant response rating” value ([2]; Postemergence, 500 g ai/ha) was 70. For the same compound, the “Plant response rating, Corn” value [2, 15] was 0, the “Plant response rating, Corn” value [2, 16] was 0 and the “Plant response rating, Foxtail, Giant” value [3, 17] was 90. For the same compound, the “Foxtail, Giant plant response rating” value [3, 18] was 90, the “Plant response rating, Foxtail, Giant” value [3, 15] was 0 and the “Plant response rating, Foxtail, Giant” value [3, 16] was 50. The “Plant response rating, Crabgrass, Large” value [4, 14] was 90, the “Crabgrass, Large plant response rating” value ([4]; Postemergence, 500 g ai/ha) was 100 and the “Plant response rating, Crabgrass, Large” value [4, 15] was 20. The “Plant response rating, Crabgrass, Large” value [4, 16] was 90, the “Plant response rating, Morningglory” value [5, 17] was 100 and the “Morningglory plant response rating” value [5, 18] was 100. For the same compound, the “Plant response rating, Morningglory” value [5, 15] was 40, the “Plant response rating, Morningglory” value [5, 16] was 60 and the “Plant response rating, Pigweed” value [6, 17] was 90. The “Pigweed plant response rating” value [6, 18] was 100, the “Plant response rating, Pigweed” value [6, 15] was 70 and the “Plant response rating, Pigweed” value [6, 16] was 90. For the same compound, the “Plant response rating, Velvetleaf” value [7, 17] was 100, the “Velvetleaf plant response rating” value [7, 18] was 100 and the “Plant response rating, Velvetleaf” value [7, 15] was 60. For the same compound, the “Plant response rating, Velvetleaf” value [7, 16] was 100, the “Plant response rating, Wheat” value [8, 17] was 10 and the “Wheat plant response rating” value [8, 18] was 50. The “Plant response rating, Wheat” value [8, 15] was 0, the “Plant response rating, Wheat” value [8, 16] was 0 and the “Plant response rating, Barley” value [9, 19] was 30. For the same compound, the “Plant response rating, Barley” value [9, 20] was 35, the “Plant response rating, Barley” value [9, 21] was 35 and the “Plant response rating, Barley” value [9, 22] was 50. The “Plant response rating, Flood, Barnyardgrass” value [10] was 0, the “Plant response rating, Barnyardgrass” value [10, 23] was 0 and the “Plant response rating, Barnyardgrass” value [10, 24] was 0. For the same compound, the “Barnyardgrass plant response rating” value [10] was 0, the “Plant response rating, Flood, Ducksalad” value [11] was 80 and the “Plant response rating, Ducksalad” value [11, 23] was 50. For the same compound, the “Plant response rating, Ducksalad” value [11, 24] was 60, the “Ducksalad plant response rating” value [11] was 0 and the “Plant response rating, Flood, Rice” value [12] was 0. For the same compound, the “Plant response rating, Rice” value [12, 23] was 0, the “Plant response rating, Rice” value [12, 24] was 0 and the “Rice plant response rating” value [12] was 0. For the same compound, the “Plant response rating, Flood, Sedge, Umbrella” value [13] was 60, the “Plant response rating, Sedge, Umbrella” value [13, 23] was 20 and the “Plant response rating, Sedge, Umbrella” value [13, 24] was 50. The “Sedge, Umbrella plant response rating” value [13] was 0.
